Results: ChEMBL document CHEMBL4507316 (2021)

Legend:
[1] = test system: Platelet-derived growth factor receptor alpha (Homo sapiens), P16234 [D842V]; test: PDGFR-alpha D842V ProQinase selectivity panel; details: Compound concentration 1.0 uM
[2] = test system: Leucine-rich repeat serine/threonine-protein kinase 2 (Homo sapiens), Q5S007 [G2019S]; test: LRRK2 G2019S ProQinase selectivity panel; details: Compound concentration 1.0 uM
[3] = biological target: Serine/threonine-protein kinase DCLK2 (Homo sapiens) (UniProt Q8N568); test: DCAMKL2 ProQinase selectivity panel; details: Compound concentration 1.0 uM
[4] = biological target: Tyrosine-protein kinase CSK (Homo sapiens) (UniProt P41240); test: CSK ProQinase selectivity panel; details: Compound concentration 1.0 uM
[5] = biological target: Serine/threonine-protein kinase PLK2 (Homo sapiens) (UniProt Q9NYY3); test: SNK ProQinase selectivity panel; details: Compound concentration 1.0 uM
[6] = biological target: Mitogen-activated protein kinase 11 (Homo sapiens, UniProt Q15759); test: p38-beta ProQinase selectivity panel; details: Compound concentration 1.0 uM
[7] = biological target: RAC-alpha serine/threonine-protein kinase (Homo sapiens) (UniProt P31749); test: AKT1 ProQinase selectivity panel; details: Compound concentration 1.0 uM
[8] = biological target: Dual specificity protein kinase CLK2 (Homo sapiens) (UniProt P49760); test: CLK2 ProQinase selectivity panel; details: Compound concentration 1.0 uM
[9] = biological target: Calcium/calmodulin-dependent protein kinase type 1D (Homo sapiens) (UniProt Q8IU85); test: CAMK1D ProQinase selectivity panel; details: Compound concentration 1.0 uM
[10] = biological target: Serine/threonine-protein kinase Chk1 (Homo sapiens) (UniProt O14757); test: CHK1 ProQinase selectivity panel; details: Compound concentration 1.0 uM
[11] = biological target: Tyrosine-protein kinase Srms (Homo sapiens) (UniProt Q9H3Y6); test: SRMS ProQinase selectivity panel; details: Compound concentration 1.0 uM
[12] = biological target: SRSF protein kinase 1 (Homo sapiens) (UniProt Q96SB4); test: SRPK1 ProQinase selectivity panel; details: Compound concentration 1.0 uM
[13] = test system: Hepatocyte growth factor receptor (Homo sapiens), P08581 [D1228N]; test: MET D1228N ProQinase selectivity panel; details: Compound concentration 1.0 uM
[14] = biological target: Inhibitor of nuclear factor kappa-B kinase subunit beta (Homo sapiens) (UniProt O14920); test: IKK-beta ProQinase selectivity panel; details: Compound concentration 1.0 uM
[15] = biological target: TGF-beta receptor type-2 (Homo sapiens) (UniProt P37173); test: TGFB-R2 ProQinase selectivity panel; details: Compound concentration 1.0 uM
[16] = biological target: Cyclin-dependent kinase 1/cyclin B (Homo sapiens) (UniProt P06493+P14635+Q8WWL7+O95067); test: CDK1/CycB1 ProQinase selectivity panel; assay type: protein-complex assay; details: Compound concentration 1.0 uM
[17] = biological target: Wee1-like protein kinase (Homo sapiens) (UniProt P30291); test: WEE1 ProQinase selectivity panel; details: Compound concentration 1.0 uM
[18] = biological target: 5-hydroxytryptamine receptor 2B (Homo sapiens, UniProt P41595); details: Compound concentration 10.0 uM
[19] = biological target: Serine/threonine-protein kinase 24 (Homo sapiens) (UniProt Q9Y6E0); test: MST3 ProQinase selectivity panel; details: Compound concentration 1.0 uM
[20] = biological target: D(2) dopamine receptor (Homo sapiens) (UniProt P14416); details: Compound concentration 10.0 uM
[21] = biological target: Ephrin type-A receptor 5 (Homo sapiens) (UniProt P54756); test: EPHA5 ProQinase selectivity panel; details: Compound concentration 1.0 uM
[22] = biological target: Receptor-interacting serine/threonine-protein kinase 2 (Homo sapiens) (UniProt O43353); test: RIPK2 ProQinase selectivity panel; details: Compound concentration 1.0 uM
[23] = test system: Tyrosine-protein kinase ABL1 (Homo sapiens), P00519 [H396P]; test: ABL1 H396P ProQinase selectivity panel; details: Compound concentration 1.0 uM
[24] = biological target: Protein kinase C theta type (Homo sapiens) (UniProt Q04759); test: PKC-theta ProQinase selectivity panel; details: Compound concentration 1.0 uM
[25] = biological target: Dual specificity protein kinase CLK1 (Homo sapiens) (UniProt P49759); test: CLK1 ProQinase selectivity panel; details: Compound concentration 1.0 uM
[26] = biological target: Casein kinase I isoform epsilon (Homo sapiens) (UniProt P49674); test: CK1-epsilon ProQinase selectivity panel; details: Compound concentration 1.0 uM
[27] = biological target: Serine/threonine-protein kinase MARK2 (Homo sapiens) (UniProt Q7KZI7); test: MARK2 ProQinase selectivity panel; details: Compound concentration 1.0 uM
[28] = biological target: Serine/threonine-protein kinase 17A (Homo sapiens) (UniProt Q9UEE5); test: STK17A ProQinase selectivity panel; details: Compound concentration 1.0 uM
[29] = biological target: Protein kinase C epsilon type (Homo sapiens) (UniProt Q02156); test: PKC-epsilon ProQinase selectivity panel; details: Compound concentration 1.0 uM
[30] = biological target: Death-associated protein kinase 1 (Homo sapiens) (UniProt P53355); test: DAPK1 ProQinase selectivity panel; details: Compound concentration 1.0 uM
[31] = biological target: Casein kinase I isoform gamma-1 (Homo sapiens) (UniProt Q9HCP0); test: CK1-gamma1 ProQinase selectivity panel; details: Compound concentration 1.0 uM
[32] = biological target: Tyrosine-protein kinase Yes (Homo sapiens) (UniProt P07947); test: YES ProQinase selectivity panel; details: Compound concentration 1.0 uM
[33] = biological target: Mitogen-activated protein kinase 12 (Homo sapiens) (UniProt P53778); test: p38-gamma ProQinase selectivity panel; details: Compound concentration 1.0 uM
[34] = biological target: cGMP-dependent protein kinase 2 (Homo sapiens) (UniProt Q13237); test: PRKG2 ProQinase selectivity panel; details: Compound concentration 1.0 uM
[35] = biological target: 5-hydroxytryptamine receptor 2A (Homo sapiens, UniProt P28223); test: GPCRScan assay: inhibition of 5-HT2A; design: radioligand conc. used [nm] 1.2 – 2.4, parental cells HEKT
[36] = biological target: Fibroblast growth factor receptor 4 (Homo sapiens) (UniProt P22455); test: FGF-R4 ProQinase selectivity panel; details: Compound concentration 1.0 uM
[37] = biological target: Platelet-derived growth factor receptor beta (Homo sapiens) (UniProt P09619); test: PDGFR-beta ProQinase selectivity panel; details: Compound concentration 1.0 uM
[38] = biological target: Ephrin type-A receptor 1 (Homo sapiens) (UniProt P21709); test: EPHA1 ProQinase selectivity panel; details: Compound concentration 1.0 uM
[39] = biological target: Non-receptor tyrosine-protein kinase TYK2 (Homo sapiens) (UniProt P29597); test: TYK2 ProQinase selectivity panel; details: Compound concentration 1.0 uM
[40] = test system: Hepatocyte growth factor receptor (Homo sapiens), P08581 [M1250T]; test: MET M1250T ProQinase selectivity panel; details: Compound concentration 1.0 uM
[41] = biological target: Cytoplasmic tyrosine-protein kinase BMX (Homo sapiens) (UniProt P51813); test: BMX ProQinase selectivity panel; details: Compound concentration 1.0 uM
[42] = biological target: Vascular endothelial growth factor receptor 3 (Homo sapiens) (UniProt P35916); test: VEGF-R3 ProQinase selectivity panel; details: Compound concentration 1.0 uM
[43] = biological target: Death-associated protein kinase 2 (Homo sapiens) (UniProt Q9UIK4); test: DAPK2 ProQinase selectivity panel; details: Compound concentration 1.0 uM
[44] = biological target: Serine/threonine-protein kinase 3 (Homo sapiens) (UniProt Q13188); test: MST2 ProQinase selectivity panel; details: Compound concentration 1.0 uM
[45] = biological target: 5-hydroxytryptamine receptor 6 (Homo sapiens) (UniProt P50406); details: Compound concentration 10.0 uM
[46] = biological target: Muscarinic acetylcholine receptor M4 (Homo sapiens) (UniProt P08173); details: Compound concentration 10.0 uM
[47] = biological target: Serine/threonine-protein kinase PAK 5 (Homo sapiens) (UniProt Q9P286); test: PAK7 ProQinase selectivity panel; details: Compound concentration 1.0 uM
[48] = biological target: Serine/threonine-protein kinase WNK2 (Homo sapiens) (UniProt Q9Y3S1); test: WNK2 ProQinase selectivity panel; details: Compound concentration 1.0 uM
[49] = test system: Hepatocyte growth factor receptor (Homo sapiens), P08581 [D1228H]; test: MET D1228H ProQinase selectivity panel; details: Compound concentration 1.0 uM

Sequence of 5-hydroxytryptamine receptor 2A (P28223 whole entry): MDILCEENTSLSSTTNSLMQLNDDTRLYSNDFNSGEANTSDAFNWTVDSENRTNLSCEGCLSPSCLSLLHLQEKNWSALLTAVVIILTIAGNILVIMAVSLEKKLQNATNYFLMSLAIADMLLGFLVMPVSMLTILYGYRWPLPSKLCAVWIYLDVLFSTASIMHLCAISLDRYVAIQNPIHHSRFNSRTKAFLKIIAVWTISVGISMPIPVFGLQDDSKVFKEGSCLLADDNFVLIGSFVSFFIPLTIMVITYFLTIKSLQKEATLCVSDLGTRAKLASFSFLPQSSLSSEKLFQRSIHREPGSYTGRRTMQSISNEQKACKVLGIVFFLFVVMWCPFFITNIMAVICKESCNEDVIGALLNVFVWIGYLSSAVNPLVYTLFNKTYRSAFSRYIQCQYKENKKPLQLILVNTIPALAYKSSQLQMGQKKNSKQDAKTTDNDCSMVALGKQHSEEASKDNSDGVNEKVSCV
Sequence of Serine/threonine-protein kinase DCLK2 (Homo sapiens) (Q8N568 whole entry): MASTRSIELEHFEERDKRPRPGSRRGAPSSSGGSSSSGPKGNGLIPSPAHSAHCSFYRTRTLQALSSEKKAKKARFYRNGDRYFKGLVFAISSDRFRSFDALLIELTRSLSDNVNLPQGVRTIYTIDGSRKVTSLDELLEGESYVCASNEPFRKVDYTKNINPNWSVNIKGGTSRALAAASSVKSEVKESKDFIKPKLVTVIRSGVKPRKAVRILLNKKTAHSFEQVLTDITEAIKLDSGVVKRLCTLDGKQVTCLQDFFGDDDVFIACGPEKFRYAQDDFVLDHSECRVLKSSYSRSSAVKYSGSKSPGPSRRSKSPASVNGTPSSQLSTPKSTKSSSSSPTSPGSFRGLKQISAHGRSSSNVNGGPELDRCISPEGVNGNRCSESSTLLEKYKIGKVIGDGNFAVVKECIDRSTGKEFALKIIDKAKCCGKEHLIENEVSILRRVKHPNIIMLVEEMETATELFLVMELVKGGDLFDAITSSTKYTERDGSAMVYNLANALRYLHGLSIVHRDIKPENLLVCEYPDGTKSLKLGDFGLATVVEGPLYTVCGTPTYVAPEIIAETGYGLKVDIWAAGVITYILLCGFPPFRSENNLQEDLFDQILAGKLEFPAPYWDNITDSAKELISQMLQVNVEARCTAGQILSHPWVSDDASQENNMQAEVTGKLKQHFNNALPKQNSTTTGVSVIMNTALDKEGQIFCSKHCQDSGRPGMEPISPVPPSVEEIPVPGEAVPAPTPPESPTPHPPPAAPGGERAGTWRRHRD
Sequence of Hepatocyte growth factor receptor (Homo sapiens), P08581 [D1228N] (P08581 whole entry D1228N): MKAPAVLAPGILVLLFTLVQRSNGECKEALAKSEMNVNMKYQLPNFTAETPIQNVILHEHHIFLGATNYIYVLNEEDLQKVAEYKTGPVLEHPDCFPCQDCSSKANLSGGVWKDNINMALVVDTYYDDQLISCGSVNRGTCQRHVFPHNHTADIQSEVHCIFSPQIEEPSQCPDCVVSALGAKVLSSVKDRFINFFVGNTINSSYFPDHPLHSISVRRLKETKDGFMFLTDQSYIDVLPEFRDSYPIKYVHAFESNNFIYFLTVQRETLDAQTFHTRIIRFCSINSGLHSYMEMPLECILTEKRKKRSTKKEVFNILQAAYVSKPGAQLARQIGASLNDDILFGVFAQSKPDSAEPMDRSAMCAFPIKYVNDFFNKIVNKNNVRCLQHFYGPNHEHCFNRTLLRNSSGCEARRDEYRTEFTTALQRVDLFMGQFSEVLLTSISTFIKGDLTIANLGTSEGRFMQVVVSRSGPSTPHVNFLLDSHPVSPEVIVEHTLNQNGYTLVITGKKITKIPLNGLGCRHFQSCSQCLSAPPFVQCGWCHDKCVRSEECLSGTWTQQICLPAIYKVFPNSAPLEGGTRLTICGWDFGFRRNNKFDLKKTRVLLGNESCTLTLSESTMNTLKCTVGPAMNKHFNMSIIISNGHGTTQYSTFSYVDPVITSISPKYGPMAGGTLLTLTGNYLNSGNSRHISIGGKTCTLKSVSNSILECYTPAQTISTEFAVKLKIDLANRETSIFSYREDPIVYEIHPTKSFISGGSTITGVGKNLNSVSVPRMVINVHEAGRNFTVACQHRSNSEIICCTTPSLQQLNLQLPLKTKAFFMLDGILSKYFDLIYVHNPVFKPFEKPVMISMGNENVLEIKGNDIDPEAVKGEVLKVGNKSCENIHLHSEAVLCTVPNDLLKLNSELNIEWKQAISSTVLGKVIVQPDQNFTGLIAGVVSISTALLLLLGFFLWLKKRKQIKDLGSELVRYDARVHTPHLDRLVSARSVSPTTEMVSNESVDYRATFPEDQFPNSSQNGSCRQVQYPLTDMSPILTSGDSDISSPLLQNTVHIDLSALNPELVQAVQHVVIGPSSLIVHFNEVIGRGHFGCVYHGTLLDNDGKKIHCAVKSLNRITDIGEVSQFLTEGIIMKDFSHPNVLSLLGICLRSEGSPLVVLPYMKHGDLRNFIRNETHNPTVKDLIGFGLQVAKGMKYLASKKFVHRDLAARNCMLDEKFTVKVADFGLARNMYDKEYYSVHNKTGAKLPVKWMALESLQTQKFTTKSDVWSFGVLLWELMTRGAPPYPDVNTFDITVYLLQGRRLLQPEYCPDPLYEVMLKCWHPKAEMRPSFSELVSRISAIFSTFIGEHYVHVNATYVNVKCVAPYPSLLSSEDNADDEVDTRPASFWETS
Sequence of 5-hydroxytryptamine receptor 6 (Homo sapiens) (P50406 whole entry): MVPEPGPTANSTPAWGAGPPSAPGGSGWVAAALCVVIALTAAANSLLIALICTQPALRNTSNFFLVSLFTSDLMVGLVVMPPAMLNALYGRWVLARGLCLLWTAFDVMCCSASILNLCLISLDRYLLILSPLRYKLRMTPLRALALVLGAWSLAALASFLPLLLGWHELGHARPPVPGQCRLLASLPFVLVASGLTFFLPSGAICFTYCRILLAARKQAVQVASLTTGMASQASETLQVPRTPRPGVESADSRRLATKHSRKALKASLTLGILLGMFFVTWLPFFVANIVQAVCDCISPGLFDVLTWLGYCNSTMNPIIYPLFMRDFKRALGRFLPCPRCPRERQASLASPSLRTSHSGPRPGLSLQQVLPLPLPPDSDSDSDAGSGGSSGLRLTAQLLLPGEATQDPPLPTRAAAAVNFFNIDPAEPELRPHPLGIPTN
Sequence of Death-associated protein kinase 1 (Homo sapiens) (P53355 whole entry, looked up, canonical isoform): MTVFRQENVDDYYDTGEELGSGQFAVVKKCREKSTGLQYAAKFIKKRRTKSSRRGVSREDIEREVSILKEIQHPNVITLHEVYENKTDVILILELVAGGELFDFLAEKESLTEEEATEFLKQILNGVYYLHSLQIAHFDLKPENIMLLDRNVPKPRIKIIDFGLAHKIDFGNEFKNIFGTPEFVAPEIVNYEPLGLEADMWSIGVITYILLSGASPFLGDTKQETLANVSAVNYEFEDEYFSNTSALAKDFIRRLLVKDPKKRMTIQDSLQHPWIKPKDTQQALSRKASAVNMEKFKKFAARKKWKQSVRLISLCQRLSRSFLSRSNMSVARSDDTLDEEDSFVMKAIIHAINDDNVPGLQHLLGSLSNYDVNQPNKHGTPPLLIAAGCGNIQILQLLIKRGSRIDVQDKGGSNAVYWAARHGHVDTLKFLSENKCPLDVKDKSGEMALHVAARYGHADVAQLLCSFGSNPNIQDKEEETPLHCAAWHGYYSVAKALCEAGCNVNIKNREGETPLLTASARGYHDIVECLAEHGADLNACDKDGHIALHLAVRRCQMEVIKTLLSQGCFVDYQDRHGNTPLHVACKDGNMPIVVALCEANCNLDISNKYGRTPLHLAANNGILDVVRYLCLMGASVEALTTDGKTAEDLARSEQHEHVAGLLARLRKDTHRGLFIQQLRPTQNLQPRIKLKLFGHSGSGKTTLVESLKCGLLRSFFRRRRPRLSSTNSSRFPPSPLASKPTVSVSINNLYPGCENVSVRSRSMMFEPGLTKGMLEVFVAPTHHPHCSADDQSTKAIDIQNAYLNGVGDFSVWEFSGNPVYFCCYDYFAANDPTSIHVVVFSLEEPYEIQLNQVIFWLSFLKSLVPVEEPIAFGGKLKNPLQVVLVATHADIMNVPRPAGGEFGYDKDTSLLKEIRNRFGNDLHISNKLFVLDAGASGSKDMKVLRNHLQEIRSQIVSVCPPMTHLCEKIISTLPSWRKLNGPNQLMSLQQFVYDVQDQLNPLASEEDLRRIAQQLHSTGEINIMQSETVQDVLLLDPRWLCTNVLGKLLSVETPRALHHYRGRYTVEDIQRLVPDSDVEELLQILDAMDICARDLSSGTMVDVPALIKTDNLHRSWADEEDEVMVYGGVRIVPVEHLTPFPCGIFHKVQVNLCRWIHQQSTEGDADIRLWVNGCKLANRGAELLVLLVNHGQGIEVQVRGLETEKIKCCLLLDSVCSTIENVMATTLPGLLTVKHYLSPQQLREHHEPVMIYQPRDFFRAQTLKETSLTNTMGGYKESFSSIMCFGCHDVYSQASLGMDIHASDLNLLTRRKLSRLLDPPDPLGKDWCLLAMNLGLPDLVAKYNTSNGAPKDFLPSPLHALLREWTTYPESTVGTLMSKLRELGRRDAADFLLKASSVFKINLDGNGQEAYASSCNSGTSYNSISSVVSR
Sequence of RAC-alpha serine/threonine-protein kinase (Homo sapiens) (P31749 whole entry): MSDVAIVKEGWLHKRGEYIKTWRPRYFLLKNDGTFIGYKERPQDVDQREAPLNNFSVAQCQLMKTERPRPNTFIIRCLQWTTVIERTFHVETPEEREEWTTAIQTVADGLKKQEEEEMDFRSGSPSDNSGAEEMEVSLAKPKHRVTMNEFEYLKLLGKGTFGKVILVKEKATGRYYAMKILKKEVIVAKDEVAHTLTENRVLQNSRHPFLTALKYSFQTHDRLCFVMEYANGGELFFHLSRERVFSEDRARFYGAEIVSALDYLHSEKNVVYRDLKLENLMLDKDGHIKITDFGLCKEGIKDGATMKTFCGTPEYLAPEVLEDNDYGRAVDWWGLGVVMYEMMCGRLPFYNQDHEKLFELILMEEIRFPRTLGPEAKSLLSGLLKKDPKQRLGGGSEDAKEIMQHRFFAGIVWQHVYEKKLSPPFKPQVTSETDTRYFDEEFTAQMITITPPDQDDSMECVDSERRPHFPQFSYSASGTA

SMILES: O=C1c2ccc(Nc3ccc(F)cc3F)cc2CCc2ccc(OC[C@H](O)CO)cc21 [Skepinone-L]
- % Residual activity with Skepinone-L [1]: 97%
- % Residual activity with Skepinone-L [2]: 77%
- % Residual activity with Skepinone-L [3]: 83%
- % Residual activity with Skepinone-L [4]: 111%
- % Residual activity with Skepinone-L [5]: 103%
- % Residual activity with Skepinone-L [6]: 3%
- % Residual activity with Skepinone-L [7]: 102%
- % Residual activity with Skepinone-L [8]: 89%
- % Residual activity with Skepinone-L [9]: 106%
- % Residual activity with Skepinone-L [10]: 94%
- % Residual activity with Skepinone-L [11]: 95%
- % Residual activity with Skepinone-L [12]: 100%
- % Residual activity with Skepinone-L [13]: 95%
- % Residual activity with Skepinone-L [14]: 81%
- % Residual activity with Skepinone-L [15]: 77%
- % Residual activity with Skepinone-L [16]: 83%
- % Residual activity with Skepinone-L [17]: 88%
- inhibition [18]: 83.1%
- % Residual activity with Skepinone-L [19]: 106%
- inhibition [20]: 7.19%
- % Residual activity with Skepinone-L [21]: 132%
- % Residual activity with Skepinone-L [22]: 77%
- % Residual activity with Skepinone-L [23]: 99%
- % Residual activity with Skepinone-L [24]: 99%
- % Residual activity with Skepinone-L [25]: 106%
- % Residual activity with Skepinone-L [26]: 86%
- % Residual activity with Skepinone-L [27]: 105%
- % Residual activity with Skepinone-L [28]: 77%
- % Residual activity with Skepinone-L [29]: 99%
- % Residual activity with Skepinone-L [30]: 86%
- % Residual activity with Skepinone-L [31]: 97%
- % Residual activity with Skepinone-L [32]: 119%
- % Residual activity with Skepinone-L [33]: 102%
- % Residual activity with Skepinone-L [34]: 94%
- Ki ([35]; read-out: Ki): 3.71 µM
- Ki ([35]; read-out: pKi (converted)): 3.39 µM
- % Residual activity with Skepinone-L [36]: 103%
- % Residual activity with Skepinone-L [37]: 96%
- % Residual activity with Skepinone-L [38]: 115%
- % Residual activity with Skepinone-L [39]: 96%
- % Residual activity with Skepinone-L [40]: 100%
- % Residual activity with Skepinone-L [41]: 108%
- % Residual activity with Skepinone-L [42]: 100%
- % Residual activity with Skepinone-L [43]: 88%
- % Residual activity with Skepinone-L [44]: 83%
- inhibition [45]: 14.8%
- inhibition [46]: -3.22%
- % Residual activity with Skepinone-L [47]: 87%
- % Residual activity with Skepinone-L [48]: 95%
- % Residual activity with Skepinone-L [49]: 97%
